According to patent US20240270762A1, “PENICILLIN-BINDING PROTEIN INHIBITORS” (priority 2021, published 2024):
Converted amounts (≈) assume the structure as drawn.

Test system: E. coli 901C
Test: microbe, parasite or virus in culture
Type: cell-based
Details: Escherichia coli, read-out: MIC E. coli 901C

CCN1CCN(C(=O)N[C@H](C(=O)N[C@H]2Cc3ccc(F)c(C(=O)O)c3OB2O)c2ccc(P(=O)(O)O)cc2)C(=O)C1=O (single isomer, unassigned) [Example 9] and O=C(O)c1cccc2c1OB(O)[C@@H](NC(=O)C(NC(=O)N1CCCNC1=O)c1ccc(P(=O)(O)O)cc1)C2 (stereo partly drawn) [Example 56, (3R)-2-hydroxy-3-(2-(2-oxohexahydropyrimidine-1-carboxamido)-2-(4-phosphonophenyl)acetamido)-3,4-dihydro-2H-benzo[e][1,2]oxaborinine-8-carboxylic acid] fall in the same range of MIC: 2 to 4 mg/L (≈ 3.3 to 6.6 µM) for the first, 2 to 4 mg/L (≈ 3.66 to 7.32 µM) for the second.

First: O=C(O)c1cccc2c1OB(O)[C@@H](NC(=O)[C@H](NC(=O)c1c[nH]ccc1=O)c1ccc(P(=O)(O)O)cc1)C2 [Example 175, (R)-2-hydroxy-3-((R)-2-(4-oxo-1,4-dihydropyridine-3-carboxamido)-2-(4-phosphonophenyl)acetamido)-3,4-dihydro-2H-benzo[e][1,2]oxaborinine-8-carboxylic acid]
Second: O=C(O)c1cccc2c1OB(O)[C@@H](NC(=O)C(NC(=O)c1ccc[nH]c1=O)c1ccc(P(=O)(O)O)cc1)C2 (stereo partly drawn) [Example 174, (3R)-2-hydroxy-3-(2-(2-oxo-1,2-dihydropyridine-3-carboxamido)-2-(4-phosphonophenyl)acetamido)-3,4-dihydro-2H-benzo[e][1,2]oxaborinine-8-carboxylic acid]
The MIC of the first is lower: 2 to 4 mg/L (≈ 3.7 to 7.39 µM) for the first, 8 to 16 mg/L (≈ 14.8 to 29.6 µM) for the second.

O=C(O)c1cccc2c1OB(O)[C@@H](NC(=O)[C@@H](NC(=O)c1cnc3sccn3c1=O)c1ccc(P(=O)(O)O)cc1)C2 (single isomer, unassigned) [Example 194] and O=C(O)c1cccc2c1OB(O)[C@@H](NC(=O)[C@H](NC(=O)c1cnc3sccn3c1=O)c1ccc(P(=O)(O)O)cc1)C2 (single isomer, unassigned) [Example 195] fall in the same range of MIC: 2 to 4 mg/L (≈ 3.34 to 6.69 µM) for the first, 2 to 4 mg/L (≈ 3.34 to 6.69 µM) for the second.

Compared with O=C(O)c1cccc2c1OB(O)[C@@H](NC(=O)[C@H](NC(=O)c1cccn(C(F)F)c1=O)c1ccc(P(=O)(O)O)cc1)C2 (single isomer, unassigned) [Example 191], O=C(O)c1cccc2c1OB(O)[C@@H](NC(=O)[C@@H](NC(=O)c1cccn(C(F)F)c1=O)c1ccc(P(=O)(O)O)cc1)C2 (single isomer, unassigned) [Example 190] is higher in MIC: < 1 mg/L for the first, 2 to 4 mg/L (≈ 3.38 to 6.77 µM) for the second.

First: Cn1cccc(C(=O)N[C@H](C(=O)N[C@H]2Cc3cccc(C(=O)O)c3OB2O)c2ccc(P(=O)(O)O)cc2)c1=O (single isomer, unassigned) [Example 181]
Second: O=C(O)c1cccc2c1OB(O)[C@@H](NC(=O)C(NC(=O)c1cnc[nH]c1=O)c1ccc(P(=O)(O)O)cc1)C2 (stereo partly drawn) [Example 176, (3R)-2-hydroxy-3-(2-(6-oxo-1,6-dihydropyrimidine-5-carboxamido)-2-(4-phosphonophenyl)acetamido)-3,4-dihydro-2H-benzo[e][1,2]oxaborinine-8-carboxylic acid]
The MIC of the first is higher: 32 to 64 mg/L (≈ 57.6 to 115 µM) for the first, 8 to 16 mg/L (≈ 14.8 to 29.5 µM) for the second.

N#Cc1ccnc(C(=O)NC(C(=O)N[C@H]2Cc3cccc(C(=O)O)c3OB2O)c2ccc(P(=O)(O)O)cc2)c1 (stereo partly drawn) [Example 179, (3R)-3-(2-(4-cyanopicolinamido)-2-(4-phosphonophenyl)acetamido)-2-hydroxy-3,4-dihydro-2H-benzo[e][1,2]oxaborinine-8-carboxylic acid] and Nc1ncc(C(=O)N[C@@H](C(=O)N[C@H]2Cc3cccc(C(=O)O)c3OB2O)c2ccc(P(=O)(O)O)cc2)s1 (racemic) [Example 50, (R)-3-((S)-2-(2-aminothiazole-5-carboxamido)-2-(4-phosphonophenyl)acetamido)-2-hydroxy-3,4-dihydro-2H-benzo[e][1,2]oxaborinine-8-carboxylic acid and (R)-3-((R)-2-(2-aminothiazole-5-carboxamido)-2-(4-phosphonophenyl)acetamido)-2-hydroxy-3,4-dihydro-2H-benzo[e][1,2]oxaborinine-8-carboxylic acid] fall in the same range of MIC: 8 to 16 mg/L (≈ 14.5 to 29.1 µM) for the first, 8 to 16 mg/L (≈ 14.6 to 29.3 µM) for the second.

Compared with NS(=O)(=O)NC(C(=O)N[C@H]1Cc2cccc(C(=O)O)c2OB1O)c1ccc(P(=O)(O)O)cc1 (stereo partly drawn) [Example 58, (3R)-2-hydroxy-3-(2-(4-phosphonophenyl)-2-(sulfamoylamino)acetamido)-3,4-dihydro-2H-benzo[e][1,2]oxaborinine-8-carboxylic acid], CS(=O)(=O)NC(C(=O)N[C@H]1Cc2cccc(C(=O)O)c2OB1O)c1ccc(P(=O)(O)O)cc1 (stereo partly drawn) [Example 59, (3R)-2-hydroxy-3-(2-(methylsulfonamido)-2-(4-phosphonophenyl)acetamido)-3,4-dihydro-2H-benzo[e][1,2]oxaborinine-8-carboxylic acid] is lower in MIC: > 128 mg/L for the first, 32 to 64 mg/L (≈ 64.2 to 128 µM) for the second.

O=C(O)c1cccc2c1OB(O)[C@@H](NC(=O)C(NS(=O)(=O)C1CC1)c1ccc(P(=O)(O)O)cc1)C2 (stereo partly drawn) [Example 61, (3R)-3-(2-(cyclopropanesulfonamido)-2-(4-phosphonophenyl)acetamido)-2-hydroxy-3,4-dihydro-2H-benzo[e][1,2]oxaborinine-8-carboxylic acid] and CC(C)S(=O)(=O)NC(C(=O)N[C@H]1Cc2cccc(C(=O)O)c2OB1O)c1ccc(P(=O)(O)O)cc1 (stereo partly drawn) [Example 60, (3R)-2-hydroxy-3-(2-((1-methylethyl)sulfonamido)-2-(4-phosphonophenyl)acetamido)-3,4-dihydro-2H-benzo[e][1,2]oxaborinine-8-carboxylic acid] fall in the same range of MIC: 32 to 64 mg/L (≈ 61 to 122 µM) for the first, 32 to 64 mg/L (≈ 60.8 to 122 µM) for the second.

O=C(O)c1cccc2c1OB(O)[C@@H](NC(=O)C(NC(=O)C(F)(F)F)c1ccc(P(=O)(O)O)cc1)C2 (stereo partly drawn) [Example 172, (3R)-2-hydroxy-3-(2-(4-phosphonophenyl)-2-(2,2,2-trifluoroacetamido)acetamido)-3,4-dihydro-2H-benzo[e][1,2]oxaborinine-8-carboxylic acid] and O=C(O)c1cccc2c1OB(O)[C@@H](NC(=O)C(NC(=O)[C@H]1CCCN1)c1ccc(P(=O)(O)O)cc1)C2 (stereo partly drawn) [Example 52, (3R)-2-hydroxy-3-(2-(4-phosphonophenyl)-2-((R)-pyrrolidine-2-carboxamido)acetamido)-3,4-dihydro-2H-benzo[e][1,2]oxaborinine-8-carboxylic acid] fall in the same range of MIC: 32 to 64 mg/L (≈ 62 to 124 µM) for the first, 32 to 64 mg/L (≈ 61.9 to 124 µM) for the second.

O=C1CC[C@@H](C(=O)NC(C(=O)N[C@H]2Cc3cccc(C(=O)O)c3OB2O)c2ccc(P(=O)(O)O)cc2)N1 (stereo partly drawn) [Example 64, (3R)-2-hydroxy-3-(2-((S)-5-oxopyrrolidine-2-carboxamido)-2-(4-phosphonophenyl)acetamido)-3,4-dihydro-2H-benzo[e][1,2]oxaborinine-8-carboxylic acid] and O=C1CC[C@H](C(=O)NC(C(=O)N[C@H]2Cc3cccc(C(=O)O)c3OB2O)c2ccc(P(=O)(O)O)cc2)N1 (stereo partly drawn) [Example 53, (3R)-2-hydroxy-3-(2-((R)-5-oxopyrrolidine-2-carboxamido)-2-(4-phosphonophenyl)acetamido)-3,4-dihydro-2H-benzo[e][1,2]oxaborinine-8-carboxylic acid] fall in the same range of MIC: 8 to 16 mg/L (≈ 15.1 to 30.1 µM) for the first, 8 to 16 mg/L (≈ 15.1 to 30.1 µM) for the second.

CN1CCC[C@@H]1C(=O)N[C@@H](C(=O)N[C@H]1Cc2cccc(C(=O)O)c2OB1O)c1ccc(P(=O)(O)O)cc1 (racemic) [Example 54, (R)-2-hydroxy-3-((S)-2-((R)-1-methylpyrrolidine-2-carboxamido)-2-(4-phosphonophenyl)acetamido)-3,4-dihydro-2H-benzo[e][1,2]oxaborinine-8-carboxylic acid and (R)-2-hydroxy-3-((R)-2-((R)-1-methylpyrrolidine-2-carboxamido)-2-(4-phosphonophenyl)acetamido)-3,4-dihydro-2H-benzo[e][1,2]oxaborinine-8-carboxylic acid] and CN1CCC[C@H]1C(=O)NC(C(=O)N[C@H]1Cc2cccc(C(=O)O)c2OB1O)c1ccc(P(=O)(O)O)cc1 (stereo partly drawn) [Example 66] fall in the same range of MIC: 32 to 64 mg/L (≈ 60.2 to 120 µM) for the first, 32 to 64 mg/L (≈ 60.2 to 120 µM) for the second.

O=C(O)c1cccc2c1OB(O)[C@@H](NC(=O)[C@H](NC(=O)[C@@H]1CCCN1)c1ccc(P(=O)(O)O)cc1)C2 [Example 173, (R)-2-hydroxy-3-((R)-2-(4-phosphonophenyl)-2-((S)-pyrrolidine-2-carboxamido)acetamido)-3,4-dihydro-2H-benzo[e][1,2]oxaborinine-8-carboxylic acid] and CC(=O)N1CCC[C@H]1C(=O)NC(C(=O)N[C@H]1Cc2cccc(C(=O)O)c2OB1O)c1ccc(P(=O)(O)O)cc1 (stereo partly drawn) [Example 65, (3R)-3-(2-((S)-1-acetylpyrrolidine-2-carboxamido)-2-(4-phosphonophenyl)acetamido)-2-hydroxy-3,4-dihydro-2H-benzo[e][1,2]oxaborinine-8-carboxylic acid] fall in the same range of MIC: 32 to 64 mg/L (≈ 61.9 to 124 µM) for the first, 32 to 64 mg/L (≈ 57.2 to 114 µM) for the second.
